The values below come from article PMC6539891, “Indole-Based Hydrazones Containing A Sulfonamide Moiety as Selective Inhibitors of Tumor-Associated Human Carbonic Anhydrase Isoforms IX and XII” (International Journal of Molecular Sciences, 2019).

Assay [1] concerns the target T1, hCA II (Homo sapiens, UniProt P00918).
T1 construct: gene CA2; recombinant from E. coli; cytosolic isoform
Put plainly: stopped-flow CO2 hydration assay. Type of assay: biochemical. An excerpt: stopped-flow CO2 hydration assay on hCA II

Assay [2] has as its target T2, hCA I (Homo sapiens, UniProt P00915).
T2 construct: gene CA1; recombinant from E. coli; cytosolic isoform
Briefly: stopped-flow CO2 hydration assay. Type of assay: biochemical. An excerpt:
stopped-flow CO2 hydration assay on hCA I

Assay [3] deals with T3, hCA XII (Homo sapiens, UniProt O43570).
T3 construct: gene CA12; recombinant from E. coli; transmembrane isoform with extracellular catalytic domain
Put plainly: stopped-flow CO2 hydration assay. Type of assay: biochemical. An excerpt:
stopped-flow CO2 hydration assay on hCA XII

The target of assay [4] is T4, hCA IX (Homo sapiens, UniProt Q16790).
T4 construct: gene CA9; recombinant from E. coli; transmembrane isoform with extracellular catalytic domain
Put plainly: stopped-flow CO2 hydration assay. Type of assay: biochemical. Conditions: read-out: KI^* (nM) / hCAIX. An excerpt: stopped-flow CO2 hydration assay on hCA IX

Assay [5] can be described thus: stopped-flow CO2 hydration assay. Type of assay: biochemical, Homo sapiens. The note with it: read-out: KI^* (nM) / hCA I.

T2 sequence (P00915 2-261): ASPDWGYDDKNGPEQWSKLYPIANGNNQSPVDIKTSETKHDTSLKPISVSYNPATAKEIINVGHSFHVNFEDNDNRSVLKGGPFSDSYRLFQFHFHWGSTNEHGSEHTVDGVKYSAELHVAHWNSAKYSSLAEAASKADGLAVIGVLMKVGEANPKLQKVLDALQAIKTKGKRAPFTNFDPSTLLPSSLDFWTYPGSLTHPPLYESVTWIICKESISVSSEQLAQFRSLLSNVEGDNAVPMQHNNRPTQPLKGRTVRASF
T3 sequence (O43570 30-289 limits assumed): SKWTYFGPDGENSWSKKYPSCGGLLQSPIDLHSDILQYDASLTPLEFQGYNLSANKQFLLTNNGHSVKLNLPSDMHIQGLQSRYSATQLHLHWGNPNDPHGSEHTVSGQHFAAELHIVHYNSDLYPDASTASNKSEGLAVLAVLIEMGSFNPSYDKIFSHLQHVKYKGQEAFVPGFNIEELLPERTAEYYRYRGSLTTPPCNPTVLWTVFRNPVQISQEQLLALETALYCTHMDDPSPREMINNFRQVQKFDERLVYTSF

For the molecule `NS(=O)(=O)c1ccc2[nH]c(C(=O)NN=Cc3cccs3)c(-c3ccccc3)c2c1` [compound 4, 3-Phenyl-2-{[2-(thiophene-2-ylmethylidene)hydrazinyl]carbonyl}-1H-indole-5-sulfonamide], the Ki is more than 10000 nM in assay [1], 6670 nM in assay [2], 4.5 nM in assay [3] and 47.4 nM in assay [4].

Take `NS(=O)(=O)c1ccc2[nH]c(C(=O)NN=Cc3ccc(Br)s3)c(-c3ccccc3)c2c1` [compound 5, 2-({2-[(5-Bromothiophene-2-yl)methylidene]hydrazinyl}carbonyl)-3-phenyl-1H-indole-5-sulfonamide]: the Ki is more than 10000 nM in assay [1], 9410 nM in assay [2], 75.1 nM in assay [3] and 48.4 nM in assay [4].

With `Cn1cccc1C=NNC(=O)c1[nH]c2ccc(S(N)(=O)=O)cc2c1-c1ccccc1` [compound 6, 2-({2-[(1-Methyl-1H-pyrrol-2-yl)methylidene]hydrazinyl}carbonyl)-3-phenyl-1H-indole-5-sulfonamide], the Ki in assay [1] is more than 10000 nM; in assay [2], 9570 nM; in assay [3] it was 64.4 nM; in assay [4], 44.3 nM.

Regarding `NS(=O)(=O)c1ccc2[nH]c(C(=O)NN=Cc3cccnc3)c(-c3ccccc3)c2c1` [compound 7, 3-Phenyl-2-{[2-(pyridine-3-ylmethylidene)hydrazinyl]carbonyl}-1H-indole-5-sulfonamide], the Ki stood at 8910 nM in assay [1], 8590 nM in assay [2], 1.4 nM in assay [3] and 35.8 nM in assay [4].

For the molecule `NS(=O)(=O)c1ccc2[nH]c(C(=O)NN=Cc3ccncc3)c(-c3ccccc3)c2c1` [compound 8, 3-Phenyl-2-{[2-(pyridine-4-ylmethylidene)hydrazinyl]carbonyl}-1H-indole-5-sulfonamide], the Ki in assay [1] worked out at 3490 nM; in assay [2] it was 3130 nM; in assay [3] it was 6.6 nM; in assay [4] it was 15.8 nM.

With `NS(=O)(=O)c1ccc2[nH]c(C(=O)NN=Cc3c[nH]c4ccccc34)c(-c3ccccc3)c2c1` [compound 9, 3-Phenyl-2-{[2-(1H-indole-3-ylmethylidene)hydrazinyl]carbonyl}-1H-indole-5-sulfonamide], the Ki in assay [5] was more than 10000 nM; in assay [2] it was more than 10000 nM; in assay [3], 77.3 nM; in assay [4], 207 nM.

Turning to `C=NNC(=O)c1[nH]c2ccc(S(N)(=O)=O)cc2c1-c1ccccc1` [compound 10, 2-[(2-Methylidenehydrazinyl)carbonyl]-3-phenyl-1H-indole-5-sulfonamide], the Ki amounted to 9370 nM in assay [1], 7480 nM in assay [2], 23.8 nM in assay [3] and 32.9 nM in assay [4].

`CC=NNC(=O)c1[nH]c2ccc(S(N)(=O)=O)cc2c1-c1ccccc1` [compound 11, 2-[(2-Ethylidenehydrazinyl)carbonyl]-3-phenyl-1H-indole-5-sulfonamide]: the Ki in assay [1] came to 5870 nM; in assay [2] it was 4060 nM; in assay [3], 62.6 nM; in assay [4], 12.9 nM.

As for `CC(C)=NNC(=O)c1[nH]c2ccc(S(N)(=O)=O)cc2c1-c1ccccc1` [compound 12, 3-Phenyl-2-{[2-(propan-2-ylidene)hydrazinyl]carbonyl}-1H-indole-5-sulfonamide], the Ki in assay [1] turned out to be 8500 nM; in assay [2], 9560 nM; in assay [3], 87.9 nM; in assay [4], 47.9 nM.

Take `CCC(C)=NNC(=O)c1[nH]c2ccc(S(N)(=O)=O)cc2c1-c1ccccc1` [compound 13, 2-{[2-(Butan-2-ylidene)hydrazinyl]carbonyl}-3-phenyl-1H-indole-5-sulfonamide]: the Ki in assay [1] was determined as 8030 nM; in assay [2] it was 9620 nM; in assay [3] it was 92.4 nM; in assay [4], 42.1 nM.

For `CCC(CC)=NNC(=O)c1[nH]c2ccc(S(N)(=O)=O)cc2c1-c1ccccc1` [compound 14, 2-{[2-(Pentan-3-ylidene)hydrazinyl]carbonyl}-3-phenyl-1H-indole-5-sulfonamide], the Ki in assay [1] stood at 6620 nM; in assay [2], 9250 nM; in assay [3] it was 9.4 nM; in assay [4] it was 43.7 nM.

Turning to `CC(CC(C)C)=NNC(=O)c1[nH]c2ccc(S(N)(=O)=O)cc2c1-c1ccccc1` [compound 15, 2-{[2-(4-Methylpentan-2-ylidene)hydrazinyl]carbonyl}-3-phenyl-1H-indole-5-sulfonamide], the Ki in assay [1] worked out at 6560 nM; in assay [2] it was 8650 nM; in assay [3], 27.9 nM; in assay [4], 188 nM.

As for `NS(=O)(=O)c1ccc2[nH]c(C(=O)NN=C3CCCC3)c(-c3ccccc3)c2c1` [compound 16, 2-[(2-Cyclopentylidenehydrazinyl)carbonyl]-3-phenyl-1H-indole-5-sulfonamide], the Ki was 5960 nM in assay [1], more than 10000 nM in assay [2], 97.2 nM in assay [3] and 476 nM in assay [4].

Turning to `NS(=O)(=O)c1ccc2[nH]c(C(=O)NN=C3CCCCC3)c(-c3ccccc3)c2c1` [compound 17, 2-[(2-Cyclohexylidenehydrazinyl)carbonyl]-3-phenyl-1H-indole-5-sulfonamide], the Ki in assay [1] was 5870 nM; in assay [2], more than 10000 nM; in assay [3], 86.2 nM; in assay [4], 191 nM.

`CC1CCC(=NNC(=O)c2[nH]c3ccc(S(N)(=O)=O)cc3c2-c2ccccc2)CC1` (stereo not drawn) [compound 18, 2-{[2-(4-Methylcyclohexylidene)hydrazinyl]carbonyl}-3-phenyl-1H-indole-5-sulfonamide]: the Ki in assay [1] is 8940 nM; in assay [2], more than 10000 nM; in assay [3], 139 nM; in assay [4] it was 419 nM.

With `CCC1CCC(=NNC(=O)c2[nH]c3ccc(S(N)(=O)=O)cc3c2-c2ccccc2)CC1` (stereo not drawn) [compound 19, 2-{[2-(4-Ethylcyclohexylidene)hydrazinyl]carbonyl}-3-phenyl-1H-indole-5-sulfonamide], the Ki in assay [1] was 1280 nM; in assay [2], more than 10000 nM; in assay [3], 220 nM; in assay [4] it was 475 nM.

For `CCCC1CCC(=NNC(=O)c2[nH]c3ccc(S(N)(=O)=O)cc3c2-c2ccccc2)CC1` (stereo not drawn) [compound 20, 2-{[2-(4-Propylcyclohexylidene)hydrazinyl]carbonyl}-3-phenyl-1H-indole-5-sulfonamide], the Ki in assay [1] was 796 nM; in assay [2], more than 10000 nM; in assay [3], 154 nM; in assay [4], 348 nM.

For the molecule `NS(=O)(=O)c1ccc2[nH]c(C(=O)NN=C3CCC(c4ccccc4)CC3)c(-c3ccccc3)c2c1` (stereo not drawn) [compound 21, 2-{[2-(4-Phenylcyclohexylidene)hydrazinyl]carbonyl}-3-phenyl-1H-indole-5-sulfonamide], the Ki in assay [1] was 831 nM; in assay [2], more than 10000 nM; in assay [3] it was 14.8 nM; in assay [4], 32.3 nM.

For the molecule `CC(C)(C)C1CCC(=NNC(=O)c2[nH]c3ccc(S(N)(=O)=O)cc3c2-c2ccccc2)CC1` (stereo not drawn) [compound 22, 2-{[2-(4-tert-buthylcyclohexylidene)hydrazinyl]carbonyl}-3-phenyl-1H-indole-5-sulfonamide], the Ki in assay [1] is 3380 nM; in assay [2] it was more than 10000 nM; in assay [3] it was 26.6 nM; in assay [4] it was 17.4 nM.

On to `CN1CCC(=NNC(=O)c2[nH]c3ccc(S(N)(=O)=O)cc3c2-c2ccccc2)CC1` [compound 23, 2-{[2-(1-Methylpiperidine-4-ylidene)hydrazinyl]carbonyl}-3-phenyl-1H-indole-5-sulfonamide], for which the Ki was 309 nM in assay [1], more than 10000 nM in assay [2], 62.9 nM in assay [3] and 9.2 nM in assay [4].

Turning to `NS(=O)(=O)c1ccc2[nH]c(C(=O)NN=C3CCN(Cc4ccccc4)CC3)c(-c3ccccc3)c2c1` [compound 24, 2-{[2-(1-Benzylpiperidine-4-ylidene)hydrazinyl]carbonyl}-3-phenyl-1H-indole-5-sulfonamide], the Ki in assay [1] is 372 nM; in assay [2], 7380 nM; in assay [3] it was 9.4 nM; in assay [4] it was 11.7 nM.
